Numbers after ± are expanded uncertainties.
Key:
[1] = Molar enthalpy of transition or fusion; details: DSC
[2] = DTA

| Compound | Molar enthalpy of transition or fusion ([1]; Crystal) [kcal/mol] | Normal melting temperature ([2]; Crystal) [°C] | Molar enthalpy of transition or fusion ([1]; Crystal 1) [kcal/mol] | Normal melting temperature ([2]; Crystal 1) [°C] | Triple point temperature ([2]; Crystal 2) [K] | other results |
| --- | --- | --- | --- | --- | --- | --- |
| N#CCCCCCCCCCCC#N [dodecanedinitrile] | 8.21 ± 0.263 | 21.08 ± 0.48 |  |  |  |  |
| N#CCCCCC#N [hexanedinitrile] |  |  | 4.31 ± 0.153 | 1.89 ± 0.49 | 270.25 ± 1.9 |  |
| N#CCCCCCCCCCCCCC#N [tetradecanedinitrile] |  |  | 9.6 ± 0.227 | 36.40 ± 0.8 | 261.05 ± 0.56 | Molar enthalpy of transition or fusion ([1]; Crystal 2): 0.423 ± 0.0741 kcal/mol |
| N#CCCCCCCCCCC#N [undecanodinitrile] | 6.22 ± 0.406 | -7.01 ± 0.73 |  |  |  |  |
| N#CCCCCCC#N [heptanedinitrile] |  |  | 3.59 ± 0.406 | -31.4 ± 0.39 | 236.72 ± 1.8 |  |
| N#CCCCCCCCC#N [nonanedinitrile] | 4.46 ± 0.263 | -22.01 ± 0.55 |  |  |  |  |
| N#CCC#N [propanedinitrile] |  |  | 2.56 ± 0.11 | 31.89 ± 0.55 | 303.64 ± 2.1 | Molar enthalpy of transition or fusion ([1]; Crystal 4): 0.103 ± 0.0287 kcal/mol; Triple point temperature ([2]; Crystal 3): 294.24 ± 1.1 K; Triple point temperature ([2]; Crystal 4): 260.9 ± 1.6 K |
| N#CCCCCCCCCC#N [decanedinitrile] |  |  | 6.73 ± 0.153 | 8.03 ± 0.46 | 278.02 ± 1.9 |  |
| N#CCCCC#N [pentanedinitrile] | 2.88 ± 0.189 | -31.10 ± 0.5 |  |  |  |  |
| N#CCCCCCCC#N [octanedinitrile] |  |  | 5.25 ± 0.148 | -4.22 ± 1.1 | 265.82 ± 2.5 |  |
| N#CCCC#N [butanedinitrile] |  |  | 0.896 ± 0.11 | 57.11 ± 1.4 | 233.59 ± 0.53 | Molar enthalpy of transition or fusion ([1]; Crystal 2): 1.46 ± 0.0813 kcal/mol |

— the NIST ThermoML archive (doi:10.1016/j.jct.2007.03.005)
